Test results taken from PubChem BioAssay (NCI).
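Following 48 hours of exposure in 96-well plates, responses at five concentrations were used to interpolate endpoints linearly. At the TGI there is no net growth.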

Experiments:
Test in all cases: NCI anticancer screen, dose series, 48 h
UACC-257 melanoma = test system: UACC-257 melanoma
NCI-H460 lung = test system: NCI-H460 lung
TK-10 renal = test system: TK-10 renal
HOP-92 NSCLC = test system: HOP-92 NSCLC
HOP-62 NSCLC = test system: HOP-62 NSCLC
RPMI-8226 leukemia = test system: RPMI-8226 leukemia
786-0 renal = test system: 786-0 renal
MOLT-4 leukemia = test system: MOLT-4 leukemia
RXF-631 renal = test system: RXF-631 renal
SK-MEL-2 melanoma = test system: SK-MEL-2 melanoma
SR leukemia = test system: SR leukemia
SF-268 CNS = test system: SF-268 CNS
OVCAR-5 ovarian = test system: OVCAR-5 ovarian
CAKI-1 renal = test system: CAKI-1 renal
IGROV1 ovarian = test system: IGROV1 ovarian
RXF 393 renal = test system: RXF 393 renal
LOX IMVI melanoma = test system: LOX IMVI melanoma
DMS 273 small cell lung = test system: DMS 273 small cell lung
SN12C renal = test system: SN12C renal
K-562 leukemia = test system: K-562 leukemia
HCT-15 colon = test system: HCT-15 colon
ACHN renal = test system: ACHN renal
NCI-H226 lung = test system: NCI-H226 lung
NCI-H522 lung = test system: NCI-H522 lung
SNB-78 CNS = test system: SNB-78 CNS
UO-31 renal = test system: UO-31 renal
A549 NSCLC = test system: A549 NSCLC
HL-60(TB) leukemia = test system: HL-60(TB) leukemia
COLO 205 colon = test system: COLO 205 colon
OVCAR-3 ovarian = test system: OVCAR-3 ovarian
OVCAR-8 ovarian = test system: OVCAR-8 ovarian
SNB-75 CNS = test system: SNB-75 CNS
SK-MEL-28 melanoma = test system: SK-MEL-28 melanoma
SF-539 CNS = test system: SF-539 CNS
DLD-1 colon = test system: DLD-1 colon
M14 melanoma = test system: M14 melanoma
SW-620 colon = test system: SW-620 colon
LXFL 529 NSCLC = test system: LXFL 529 NSCLC
HT29 colon = test system: HT29 colon
U251 CNS = test system: U251 CNS
XF 498 CNS = test system: XF 498 CNS
HCT-116 colon = test system: HCT-116 colon
MALME-3M melanoma = test system: MALME-3M melanoma
SNB-19 CNS = test system: SNB-19 CNS
EKVX NSCLC = test system: EKVX NSCLC
KM12 colon = test system: KM12 colon
CCRF-CEM leukemia = test system: CCRF-CEM leukemia
DMS 114 small cell lung = test system: DMS 114 small cell lung
KM20L2 colon = test system: KM20L2 colon
M19-MEL melanoma = test system: M19-MEL melanoma
NCI-H23 lung = test system: NCI-H23 lung
OVCAR-4 ovarian = test system: OVCAR-4 ovarian
SK-OV-3 ovarian = test system: SK-OV-3 ovarian
SK-MEL-5 melanoma = test system: SK-MEL-5 melanoma
HCC-2998 colon = test system: HCC-2998 colon
HOP-18 NSCLC = test system: HOP-18 NSCLC
SF-295 CNS = test system: SF-295 CNS
A498 renal = test system: A498 renal

CN1OC2OC(=O)OC2[C@H]1[C@H]1O[C@H](c2ccccc2)OC1(C)c1cc(OC(=O)c2ccccc2)ccc1OC(=O)c1ccccc1 (some centres undefined) was tested, and the TGI (UACC-257 melanoma) was > 50 µM, the TGI (NCI-H460 lung) was > 50 µM and the TGI (TK-10 renal) was > 50 µM. For the same compound, the TGI (HOP-92 NSCLC) was > 50 µM, the TGI (HOP-62 NSCLC) was > 50 µM and the TGI (RPMI-8226 leukemia) was > 50 µM. The TGI (786-0 renal) was > 50 µM, the TGI (MOLT-4 leukemia) was > 50 µM and the TGI (RXF-631 renal) was > 50 µM. For the same compound, the TGI (SK-MEL-2 melanoma) was > 50 µM, the TGI (SR leukemia) was > 50 µM and the TGI (SF-268 CNS) was > 50 µM. The TGI (OVCAR-5 ovarian) was > 50 µM, the TGI (CAKI-1 renal) was > 50 µM and the TGI (IGROV1 ovarian) was > 50 µM. The TGI (RXF 393 renal) was > 50 µM, the TGI (LOX IMVI melanoma) was > 50 µM and the TGI (DMS 273 small cell lung) was > 50 µM. The TGI (SN12C renal) was > 50 µM, the TGI (K-562 leukemia) was > 50 µM and the TGI (HCT-15 colon) was > 50 µM. For the same compound, the TGI (ACHN renal) was > 50 µM, the TGI (NCI-H226 lung) was > 50 µM and the TGI (NCI-H522 lung) was > 50 µM. For the same compound, the TGI (SNB-78 CNS) was > 50 µM, the TGI (UO-31 renal) was > 50 µM and the TGI (A549 NSCLC) was > 50 µM. For the same compound, the TGI (HL-60(TB) leukemia) was > 50 µM, the TGI (COLO 205 colon) was > 50 µM and the TGI (OVCAR-3 ovarian) was > 50 µM. For the same compound, the TGI (OVCAR-8 ovarian) was > 50 µM, the TGI (SNB-75 CNS) was > 50 µM and the TGI (SK-MEL-28 melanoma) was > 50 µM. The TGI (SF-539 CNS) was > 50 µM, the TGI (DLD-1 colon) was > 50 µM and the TGI (M14 melanoma) was > 50 µM. For the same compound, the TGI (SW-620 colon) was > 50 µM, the TGI (LXFL 529 NSCLC) was > 50 µM and the TGI (HT29 colon) was > 50 µM. The TGI (U251 CNS) was > 50 µM, the TGI (XF 498 CNS) was > 50 µM and the TGI (HCT-116 colon) was > 50 µM. For the same compound, the TGI (MALME-3M melanoma) was > 50 µM, the TGI (SNB-19 CNS) was > 50 µM and the TGI (EKVX NSCLC) was > 50 µM. For the same compound, the TGI (KM12 colon) was > 50 µM, the TGI (CCRF-CEM leukemia) was > 50 µM and the TGI (DMS 114 small cell lung) was > 50 µM. The TGI (KM20L2 colon) was > 50 µM, the TGI (M19-MEL melanoma) was > 50 µM and the TGI (NCI-H23 lung) was > 50 µM. The TGI (OVCAR-4 ovarian) was > 50 µM, the TGI (SK-OV-3 ovarian) was > 50 µM and the TGI (SK-MEL-5 melanoma) was > 50 µM.

For CCN(CC)CCOc1ccc(C(=C2CCCCC2)c2ccc(OCCN(CC)CC)cc2)cc1, the TGI (HCC-2998 colon) was 2.62 µM, the TGI (UACC-257 melanoma) was 3.32 µM and the TGI (NCI-H460 lung) was 2.94 µM. It also gave a TGI (TK-10 renal) of 2.89 µM, a TGI (HOP-92 NSCLC) of 3.94 µM and a TGI (HOP-62 NSCLC) of 3.27 µM. It also gave a TGI (RPMI-8226 leukemia) of 4.94 µM, a TGI (786-0 renal) of 2.69 µM and a TGI (MOLT-4 leukemia) of 2.59 µM. It also gave a TGI (RXF-631 renal) of 2.82 µM, a TGI (SK-MEL-2 melanoma) of 3.52 µM and a TGI (SF-268 CNS) of 3.23 µM. It also gave a TGI (OVCAR-5 ovarian) of 3.37 µM, a TGI (CAKI-1 renal) of 3.7 µM and a TGI (IGROV1 ovarian) of 3.58 µM. It also gave a TGI (RXF 393 renal) of 3.14 µM, a TGI (LOX IMVI melanoma) of 2.69 µM and a TGI (DMS 273 small cell lung) of 2.93 µM. For the same compound, the TGI (SN12C renal) was 3.09 µM, the TGI (K-562 leukemia) was 1.02 µM and the TGI (HCT-15 colon) was 2.91 µM. For the same compound, the TGI (ACHN renal) was 3.18 µM, the TGI (HOP-18 NSCLC) was 8.01 µM and the TGI (NCI-H226 lung) was 4.26 µM. It also gave a TGI (NCI-H522 lung) of 3.29 µM, a TGI (UO-31 renal) of 2.96 µM and a TGI (A549 NSCLC) of 3.16 µM. It also gave a TGI (HL-60(TB) leukemia) of 2.56 µM, a TGI (COLO 205 colon) of 2.7 µM and a TGI (OVCAR-3 ovarian) of 3.62 µM. It also gave a TGI (OVCAR-8 ovarian) of 3.13 µM, a TGI (SNB-75 CNS) of 2.94 µM and a TGI (SK-MEL-28 melanoma) of 2.64 µM. The TGI (SF-539 CNS) was 2.96 µM, the TGI (DLD-1 colon) was 4.52 µM and the TGI (M14 melanoma) was 2.91 µM. The TGI (SW-620 colon) was 2.5 µM, the TGI (SF-295 CNS) was 3.3 µM and the TGI (LXFL 529 NSCLC) was 3.06 µM. It also gave a TGI (HT29 colon) of 2.32 µM, a TGI (U251 CNS) of 3.1 µM and a TGI (XF 498 CNS) of 2.29 µM. It also gave a TGI (HCT-116 colon) of 2.54 µM, a TGI (MALME-3M melanoma) of 3.13 µM and a TGI (SNB-19 CNS) of 4.03 µM. The TGI (EKVX NSCLC) was 3.36 µM, the TGI (KM12 colon) was 2.57 µM and the TGI (CCRF-CEM leukemia) was 3.25 µM. The TGI (KM20L2 colon) was 2.55 µM, the TGI (M19-MEL melanoma) was 3.08 µM and the TGI (NCI-H23 lung) was 3.56 µM. It also gave a TGI (A498 renal) of 3.8 µM, a TGI (OVCAR-4 ovarian) of 4.77 µM and a TGI (SK-OV-3 ovarian) of 3.52 µM. For the same compound, the TGI (SK-MEL-5 melanoma) was 2.95 µM.
